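Cultured in 96-well plates, cells were exposed to test compound for 48 hours across five concentrations. GI50 = concentration required for 50% inhibition of growth. TGI denotes the concentration required for complete inhibition of growth.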
Tests used:
Assay in all cases: NCI anticancer screen, dose series, 48 h
COLO 205 colon = tested on: COLO 205 colon
SW-620 colon = tested on: SW-620 colon
KM12 colon = tested on: KM12 colon
NCI-H226 lung = tested on: NCI-H226 lung
ACHN renal = tested on: ACHN renal
U251 CNS = tested on: U251 CNS
IGROV1 ovarian = tested on: IGROV1 ovarian
EKVX NSCLC = tested on: EKVX NSCLC
MCF7 breast = tested on: MCF7 breast
UACC-257 melanoma = tested on: UACC-257 melanoma
NCI-H460 lung = tested on: NCI-H460 lung
SR leukemia = tested on: SR leukemia
MDA-MB-231 breast = tested on: MDA-MB-231 breast
RPMI-8226 leukemia = tested on: RPMI-8226 leukemia
MDA-MB-435 = tested on: MDA-MB-435
SF-295 CNS = tested on: SF-295 CNS
CAKI-1 renal = tested on: CAKI-1 renal
K-562 leukemia = tested on: K-562 leukemia
NCI-H23 lung = tested on: NCI-H23 lung
A498 renal = tested on: A498 renal
OVCAR-4 ovarian = tested on: OVCAR-4 ovarian
SK-MEL-5 melanoma = tested on: SK-MEL-5 melanoma
DU-145 prostate = tested on: DU-145 prostate
UO-31 renal = tested on: UO-31 renal
HCT-116 colon = tested on: HCT-116 colon
UACC-62 melanoma = tested on: UACC-62 melanoma
SNB-75 CNS = tested on: SNB-75 CNS
NCI-H522 lung = tested on: NCI-H522 lung
SF-268 CNS = tested on: SF-268 CNS
RXF 393 renal = tested on: RXF 393 renal
SNB-19 CNS = tested on: SNB-19 CNS
BT-549 breast = tested on: BT-549 breast
HS 578T breast = tested on: HS 578T breast
OVCAR-8 ovarian = tested on: OVCAR-8 ovarian
HCC-2998 colon = tested on: HCC-2998 colon
M14 melanoma = tested on: M14 melanoma
LOX IMVI melanoma = tested on: LOX IMVI melanoma
SK-OV-3 ovarian = tested on: SK-OV-3 ovarian
NCI/ADR-RES ovarian = tested on: NCI/ADR-RES ovarian
PC-3 prostate = tested on: PC-3 prostate
HOP-62 NSCLC = tested on: HOP-62 NSCLC
OVCAR-5 ovarian = tested on: OVCAR-5 ovarian
HCT-15 colon = tested on: HCT-15 colon
MALME-3M melanoma = tested on: MALME-3M melanoma
SN12C renal = tested on: SN12C renal
A549 NSCLC = tested on: A549 NSCLC
MDA-MB-468 breast = tested on: MDA-MB-468 breast
OVCAR-3 ovarian = tested on: OVCAR-3 ovarian
786-0 renal = tested on: 786-0 renal
SF-539 CNS = tested on: SF-539 CNS
HT29 colon = tested on: HT29 colon
HL-60(TB) leukemia = tested on: HL-60(TB) leukemia
TK-10 renal = tested on: TK-10 renal
HOP-92 NSCLC = tested on: HOP-92 NSCLC
T-47D breast = tested on: T-47D breast
MOLT-4 leukemia = tested on: MOLT-4 leukemia
CCRF-CEM leukemia = tested on: CCRF-CEM leukemia
SK-MEL-2 melanoma = tested on: SK-MEL-2 melanoma
SK-MEL-28 melanoma = tested on: SK-MEL-28 melanoma

SMILES: Cc1ccc(-c2nc(C#N)c(S(=O)(=O)N3CCN(S(=O)(=O)c4ccccc4)CC3)o2)cc1
- GI50 (COLO 205 colon): > 100 µM
- TGI (COLO 205 colon): > 100 µM
- GI50 (SW-620 colon): > 100 µM
- TGI (SW-620 colon): > 100 µM
- GI50 (KM12 colon): > 100 µM
- TGI (KM12 colon): > 100 µM
- GI50 (NCI-H226 lung): > 100 µM
- TGI (NCI-H226 lung): > 100 µM
- GI50 (ACHN renal): > 100 µM
- TGI (ACHN renal): > 100 µM
- GI50 (U251 CNS): > 100 µM
- TGI (U251 CNS): > 100 µM
- GI50 (IGROV1 ovarian): > 100 µM
- TGI (IGROV1 ovarian): > 100 µM
- GI50 (EKVX NSCLC): > 100 µM
- TGI (EKVX NSCLC): > 100 µM
- GI50 (MCF7 breast): > 100 µM
- TGI (MCF7 breast): > 100 µM
- GI50 (UACC-257 melanoma): > 100 µM
- TGI (UACC-257 melanoma): > 100 µM
- GI50 (NCI-H460 lung): > 100 µM
- TGI (NCI-H460 lung): > 100 µM
- GI50 (SR leukemia): > 100 µM
- TGI (SR leukemia): > 100 µM
- GI50 (MDA-MB-231 breast): > 100 µM
- TGI (MDA-MB-231 breast): > 100 µM
- GI50 (RPMI-8226 leukemia): > 100 µM
- TGI (RPMI-8226 leukemia): > 100 µM
- GI50 (MDA-MB-435): > 100 µM
- TGI (MDA-MB-435): > 100 µM
- GI50 (SF-295 CNS): > 100 µM
- TGI (SF-295 CNS): > 100 µM
- GI50 (CAKI-1 renal): > 100 µM
- TGI (CAKI-1 renal): > 100 µM
- GI50 (K-562 leukemia): > 100 µM
- TGI (K-562 leukemia): > 100 µM
- GI50 (NCI-H23 lung): > 100 µM
- TGI (NCI-H23 lung): > 100 µM
- GI50 (A498 renal): > 100 µM
- TGI (A498 renal): > 100 µM
- GI50 (OVCAR-4 ovarian): > 100 µM
- TGI (OVCAR-4 ovarian): > 100 µM
- GI50 (SK-MEL-5 melanoma): > 100 µM
- TGI (SK-MEL-5 melanoma): > 100 µM
- GI50 (DU-145 prostate): > 100 µM
- TGI (DU-145 prostate): > 100 µM
- GI50 (UO-31 renal): > 100 µM
- TGI (UO-31 renal): > 100 µM
- GI50 (HCT-116 colon): > 100 µM
- TGI (HCT-116 colon): > 100 µM
- GI50 (UACC-62 melanoma): > 100 µM
- TGI (UACC-62 melanoma): > 100 µM
- GI50 (SNB-75 CNS): > 100 µM
- TGI (SNB-75 CNS): > 100 µM
- GI50 (NCI-H522 lung): > 100 µM
- TGI (NCI-H522 lung): > 100 µM
- GI50 (SF-268 CNS): > 100 µM
- TGI (SF-268 CNS): > 100 µM
- GI50 (RXF 393 renal): > 100 µM
- TGI (RXF 393 renal): > 100 µM
- GI50 (SNB-19 CNS): > 100 µM
- TGI (SNB-19 CNS): > 100 µM
- GI50 (BT-549 breast): > 100 µM
- TGI (BT-549 breast): > 100 µM
- GI50 (HS 578T breast): > 100 µM
- TGI (HS 578T breast): > 100 µM
- GI50 (OVCAR-8 ovarian): > 100 µM
- TGI (OVCAR-8 ovarian): > 100 µM
- GI50 (HCC-2998 colon): > 100 µM
- TGI (HCC-2998 colon): > 100 µM
- GI50 (M14 melanoma): > 100 µM
- TGI (M14 melanoma): > 100 µM
- GI50 (LOX IMVI melanoma): > 100 µM
- TGI (LOX IMVI melanoma): > 100 µM
- GI50 (SK-OV-3 ovarian): > 100 µM
- TGI (SK-OV-3 ovarian): > 100 µM
- GI50 (NCI/ADR-RES ovarian): > 100 µM
- TGI (NCI/ADR-RES ovarian): > 100 µM
- GI50 (PC-3 prostate): > 100 µM
- TGI (PC-3 prostate): > 100 µM
- GI50 (HOP-62 NSCLC): > 100 µM
- TGI (HOP-62 NSCLC): > 100 µM
- GI50 (OVCAR-5 ovarian): > 100 µM
- TGI (OVCAR-5 ovarian): > 100 µM
- GI50 (HCT-15 colon): > 100 µM
- TGI (HCT-15 colon): > 100 µM
- GI50 (MALME-3M melanoma): > 100 µM
- TGI (MALME-3M melanoma): > 100 µM
- GI50 (SN12C renal): > 100 µM
- TGI (SN12C renal): > 100 µM
- GI50 (A549 NSCLC): > 100 µM
- TGI (A549 NSCLC): > 100 µM
- GI50 (MDA-MB-468 breast): > 100 µM
- TGI (MDA-MB-468 breast): > 100 µM
- GI50 (OVCAR-3 ovarian): > 100 µM
- TGI (OVCAR-3 ovarian): > 100 µM
- GI50 (786-0 renal): > 100 µM
- TGI (786-0 renal): > 100 µM
- GI50 (SF-539 CNS): > 100 µM
- TGI (SF-539 CNS): > 100 µM
- GI50 (HT29 colon): > 100 µM
- TGI (HT29 colon): > 100 µM
- GI50 (HL-60(TB) leukemia): > 100 µM
- TGI (HL-60(TB) leukemia): > 100 µM
- GI50 (TK-10 renal): > 100 µM
- TGI (TK-10 renal): > 100 µM
- GI50 (HOP-92 NSCLC): > 100 µM
- TGI (HOP-92 NSCLC): > 100 µM
- GI50 (T-47D breast): > 100 µM
- TGI (T-47D breast): > 100 µM
- GI50 (MOLT-4 leukemia): > 100 µM
- TGI (MOLT-4 leukemia): > 100 µM
- GI50 (CCRF-CEM leukemia): > 100 µM
- TGI (CCRF-CEM leukemia): > 100 µM
- GI50 (SK-MEL-2 melanoma): > 100 µM
- TGI (SK-MEL-2 melanoma): > 100 µM
- GI50 (SK-MEL-28 melanoma): > 100 µM
- TGI (SK-MEL-28 melanoma): > 100 µM
